From publication PMC7996082, “The translocator protein ligands as mitochondrial functional modulators for the potential anti-Alzheimer agents” (Journal of Enzyme Inhibition and Medicinal Chemistry, 2021)

Tests used:
recombinant human TSPO = target: T1, recombinant human TSPO (Homo sapiens, UniProt P30536); experiment: Surface plasmon resonance (SPR) binding affinity; conditions: mean ± SD of three measurements
T1 construct: purchased Origene Technologies, Inc. TP320107
Protocol: To determine the binding affinities of the selected compounds, the KD values were measured by using Biacore T200 optical biosensor system (GE Healthcare). The recombinant human TSPO (18 kDa, Origene Technologies, Inc., No.: TP320107) was covalently immobilised on a CM5 chip (GE Healthcare) at 25 °C via standard amine-coupling protocols in 10 mM sodium acetate (pH 4.5) at a flow rate of 10 µL/min for 1500s (immobilised protein densities: 5,000–6,000 response unit (RU)). The tested compounds were initially prepared at 10 mM in DMSO, and serially diluted in PBS-P buffer (10 mM NaH2PO4, 150 mM NaCl, pH 7.4) to 1% DMSO. For each tested compound, the kinetic values were measured using a five-point concentration series, 0.001, 0.01, 0.5, 1, and 5 µM. Multiple blank samples of running buffer alone (0 µM of tested compounds) were incorporated in every measurement. The filtered PBS-P buffer containing 1% DMSO was used as a running buffer during the SPR experiments. To measure the kinetic values, a series of different concentrations were injected over the immobilised chip at a flow rate of 50 µL/min (contact time: 120 s, dissociation time: 300 s), followed by the regeneration process at a flow rate of 50 µL/min (contact time: 120 s, stabilisation time: 10 s). The KD value of each compound was calculated by Biacore T200 evaluation software (GE Healthcare) after the standard solvent correction process.

[1] = system: acute AD model mice (Aβ1-42 ICV injected ICR mice); experiment: Y-maze spontaneous alternation test in acute AD model mice; format: in vivo, mouse; conditions: 30 mg/kg daily, 6 days; for Recovery of Y-maze spontaneous alternations: i.p.
Protocol: The acute AD mice model was prepared by administration of Aβ1-42 solution (10% DMSO/90% PBS) to male ICR mice (6 weeks old, 30 − 33 g) via intracerebroventricular (ICV) injection (Aβ1-42 dose: 500 pmol/mouse) as described previously. The wild type mice (B6C3F1) and double APP/PS1 transgenic mice (Tg AD mice model; APPswe/PSEN1dE9) were purchased from Jackson Laboratory (Bar Harbour, ME, USA). The Tg AD model mice were 11 months old at the beginning of the behaviour test, and were housed for 1 month in a room under controlled temperature and fed ad libitum. The behaviour tests were conducted during daytime in air-controlled and soundproof experiment room. The animal experiments were abided by the guidelines of the Institutional Animal Care and Use Committee of Korea Institute of Science and Technology.
To the mice of the acute AD model (n = 7 per group), each test compound (test compound in 20% cyclodextrin, 30 mg/kg) was […] injected daily for 6 days. The Y-maze spontaneous alternation test was performed 1 day after the administration of each test compound. The Y maze was made of three equally spaced black plastic arms (40 L × 10 W × 12 H cm) positioned at an equal angle. Each mouse was placed at the end of one arm and allowed to move freely through the maze for 8 min, and the sequence of arm entries was recorded. The arm entry of the mouse was counted when the all four limbs were within an arm. A set of entries into all three arms is considered as a spontaneous alternation. The spontaneous alternation (%) was calculated by the following equation: Spontaneous alternation (%)=100x[number of alternations/(total number of arm entries – 2)]
We evaluated in vivo activity of 7 and 14 in an acute AD mouse model. The acute AD model mice were generated by the administration of Aβ1-42 peptide (500 pmol) according to the previously reported method, and each compound (30 mg/kg daily) was administered intraperitoneally for 6 days. Piracetam (30 mg/kg daily) was also administered in parallel for comparison. The Y-maze spontaneous alternation tests were performed to measure the recovery of learning and memory deficit in acute AD model mice[38]^,[39]. […] We believe that the treatment of 7 was beneficial for ameliorating Aβ-induced cognitive impairments.

[2] = MTT assay: HT22 cell viability with compound alone; format: cell-based, mouse; conditions: mouse, HT22 cells; HT22 cell viability after 24 h of treatment with 5 μM compound, no Aβ
Method in brief: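 HT22 cells were seeded at 5,000 per well 24 h before exposure to test compound solution (5 µM) for 24 h at 37 °C. MTT was added for 2 h at 37 °C, then 10% Triton X-100/isopropanol/0.1 M HCl for 2 h, with OD read at 560 nm. Viability was normalised to vehicle (5 µM DMSO) as […].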

CYP2C19 = target: T2, CYP2C19 (Homo sapiens, UniProt P33261); experiment: CYP inhibition assay (Vivid CYP450 screening kit); format: in vitro ADME; conditions: 10 μM compound
T2 construct: purchased Invitrogen, Madison, WI, USA
Method in brief: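 Recombinant human CYP isozymes in baculosomes with rabbit NADPH-P450 reductase and a G6P/G6PDH regeneration system (100 mM potassium phosphate, pH 8.0) were preincubated with compound 5 min at 37 °C. Reactions were started with Vivid fluorogenic substrates and 0.1 mM NADP+, and % remaining activity was read by fluorescence after 20 min.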

T2 sequence (P33261 whole entry): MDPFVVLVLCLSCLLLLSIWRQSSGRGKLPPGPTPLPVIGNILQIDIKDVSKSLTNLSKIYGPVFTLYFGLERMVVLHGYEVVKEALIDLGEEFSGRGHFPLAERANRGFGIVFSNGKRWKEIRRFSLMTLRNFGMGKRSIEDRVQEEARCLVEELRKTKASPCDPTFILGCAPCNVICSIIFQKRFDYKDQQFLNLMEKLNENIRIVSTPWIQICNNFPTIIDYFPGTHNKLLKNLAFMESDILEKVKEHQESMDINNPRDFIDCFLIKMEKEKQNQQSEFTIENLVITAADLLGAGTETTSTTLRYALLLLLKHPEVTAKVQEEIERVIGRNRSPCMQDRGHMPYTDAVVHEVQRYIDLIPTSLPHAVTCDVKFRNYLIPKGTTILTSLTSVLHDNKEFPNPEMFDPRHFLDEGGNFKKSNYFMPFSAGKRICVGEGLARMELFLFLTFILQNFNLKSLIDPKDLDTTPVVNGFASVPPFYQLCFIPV
T1 sequence (P30536 whole entry): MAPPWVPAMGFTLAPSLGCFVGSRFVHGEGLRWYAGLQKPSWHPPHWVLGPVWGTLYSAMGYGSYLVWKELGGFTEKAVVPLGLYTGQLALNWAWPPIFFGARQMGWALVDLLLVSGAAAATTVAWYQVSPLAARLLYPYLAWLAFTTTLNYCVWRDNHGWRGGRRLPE

Row | Structure (SMILES) | Kd (recombinant human TSPO) [nM] | Recovery of Y-maze spontaneous alternations [1] [%] | viability at 24 h, 5 µM [2] [%] | CYP450 (% remaining Activity at 10 μM) CYP2C19 (CYP2C19) [%] | Y-maze activity in acute AD model (in words) [1]
1 | CCOc1ccc(-n2c(SCC(=O)NCc3ccccc3)nc3sc4c(c3c2=O)CCN(C(C)=O)C4)cc1 [Compound 31] | 1250 ± 400 | 107 | 109 | 70.0 | –
2 | CCOc1ccc(-n2c(SCC(=O)N3CCN(c4ccccc4)CC3)nc3sc4c(c3c2=O)CCN(C(C)=O)C4)cc1 [Compound 44] | 2740 ± 660 | 98 | 97 | 28.3 | –
3 | CCOc1ccc(-n2c(SCC(=O)NCc3ccccc3)nc3sc4c(c3c2=O)CCN(C)C4)cc1 [Compound 49] | – | – | 99 | 90.0 | did not show significant activity
4 | CCOc1ccc(-n2c(SCC(=O)Nc3ccc(OC)c(OC)c3)nc3sc4c(c3c2=O)CCN(C(C)=O)C4)cc1 [Compound 7] | 630 ± 330 | 76 | 95 | – | –
5 | CCOc1ccc(-n2c(SCC(=O)N(C)Cc3ccccc3)nc3sc4c(c3c2=O)CCN(C)C4)cc1 [Compound 50] | – | – | 95 | 47.9 | did not show significant activity
6 | CCOc1ccc(-n2c(SCC(=O)NC3CCN(C)CC3)nc3sc4c(c3c2=O)CCN(C(C)=O)C4)cc1 [Compound 30] | – | – | 98 | 107.6 | did not show significant activity
